Assays:
HT-1080 = assay: Modulatory profiling: Alamar Blue viability, lethal compound cotreated with death modulator (EC50, AUC); type: cell-based; design: AUC, modulator HT.3MA / AUC, modulator HT.ALLN / AUC HT.ATA / AUC HT.ActD / AUC HT.BHA / AUC HT.BHT / AUC HT.BocD / AUC HT.CHX / AUC HT.Co2+ / AUC HT.DPQ / AUC HT.EGTA / AUC HT.Lmim / AUC HT.NAD+ / AUC HT.Nec-1 / AUC HT.SP600125 / AUC HT.TLCK / AUC HT.U0126: unit not given beside the values; details: for AUC HT.ATA: HT-1080, modulator ATA; for AUC HT.ActD: HT-1080, modulator ActD; for AUC HT.BHA: HT-1080, modulator BHA; for AUC HT.BHT: HT-1080, modulator BHT; for AUC HT.BocD: HT-1080, modulator BocD; for AUC HT.CHX: HT-1080, modulator CHX; for AUC HT.Co2+: HT-1080, modulator Co2+; for AUC HT.CspA: HT-1080, modulator CspA; for AUC HT.DPQ: HT-1080, modulator DPQ; for AUC HT.EGTA: HT-1080, modulator EGTA; for AUC HT.Gd3+: HT-1080, modulator Gd3+; for AUC HT.LNAME: HT-1080, modulator LNAME; for AUC HT.Lmim: HT-1080, modulator Lmim; for AUC HT.NAD+: HT-1080, modulator NAD+; for AUC HT.NMMA: HT-1080, modulator NMMA; for HT.atoc (AUC) / HT.bCarotene (AUC) / HT.deferox (AUC) / HT.digoxin (AUC) / HT.trolox (AUC) / HT.zVAD (AUC): HT-1080; for HT.atoc (AUC): modulator atoc; for HT.bCarotene (AUC): modulator bCarotene; for HT.deferox (AUC): modulator deferox; for HT.digoxin (AUC): modulator digoxin; for HT.trolox (AUC): modulator trolox; for HT.zVAD (AUC): modulator zVAD; as to AUC HT.BHA: reference of the scale not given here; as to AUC HT.EGTA: reference of the scale not given here
BJeLR = assay: as above; type: cell-based, human; design: AUC, modulator BJ.Gd3+ / AUC, modulator BJ.LNAME / AUC, modulator BJ.Lmin / AUC, modulator BJ.3MA / AUC, modulator BJ.ALLN / AUC, modulator BJ.Boc D / AUC, modulator BJ.CHX / AUC, modulator BJ.Co2+ / AUC, modulator BJ.Nec-1 / AUC, modulator BJ.Pepstatin / AUC, modulator BJ.TLCK / AUC, modulator BJ.atoc / AUC, modulator BJ.trolox / AUC, modulator BJ.zVAD: unit not given beside the values; details: BJeLR cells, modulatory profile value (AUC); for AUC, modulator BJ.3MA: lethal compound cotreated with modulator 3MA; for AUC, modulator BJ.ALLN: lethal compound cotreated with modulator ALLN; for AUC, modulator BJ.Boc D: lethal compound cotreated with modulator Boc D; for AUC, modulator BJ.CHX: lethal compound cotreated with modulator CHX; for AUC, modulator BJ.Co2+: lethal compound cotreated with modulator Co2+; for AUC, modulator BJ.DPQ: lethal compound cotreated with modulator DPQ; for AUC, modulator BJ.Gd3+: lethal compound cotreated with modulator Gd3+; for AUC, modulator BJ.LNAME: lethal compound cotreated with modulator LNAME; for AUC, modulator BJ.Lmin/NAD+: lethal compound cotreated with modulator Lmin/NAD+; for AUC, modulator BJ.Lmin: lethal compound cotreated with modulator Lmin; for AUC, modulator BJ.NAD+: lethal compound cotreated with modulator NAD+; for AUC, modulator BJ.NMMA: lethal compound cotreated with modulator NMMA; for AUC, modulator BJ.Nec-1: lethal compound cotreated with modulator Nec-1; for AUC, modulator BJ.Pepstatin: lethal compound cotreated with modulator Pepstatin; for AUC, modulator BJ.TLCK: lethal compound cotreated with modulator TLCK; as to AUC, modulator BJ.3MA: reference of the scale not given here; as to AUC, modulator BJ.ALLN: reference of the scale not given here; as to AUC, modulator BJ.Boc D: reference of the scale not given here; as to AUC, modulator BJ.CHX: reference of the scale not given here; as to AUC, modulator BJ.Co2+: reference of the scale not given here; as to AUC, modulator BJ.DPQ: reference of the scale not given here; as to AUC, modulator BJ.Gd3+: reference of the scale not given here; as to AUC, modulator BJ.LNAME: reference of the scale not given here; as to AUC, modulator BJ.NAD+: reference of the scale not given here; as to AUC, modulator BJ.NMMA: reference of the scale not given here; as to AUC, modulator BJ.Nec-1: reference of the scale not given here; as to AUC, modulator BJ.Pepstatin: reference of the scale not given here; as to AUC, modulator BJ.TLCK: reference of the scale not given here

SMILES | AUC HT.ATA (HT-1080) | AUC HT.ActD (HT-1080) | AUC HT.BHA (HT-1080) | AUC HT.BHT (HT-1080) | AUC HT.BocD (HT-1080) | AUC HT.CHX (HT-1080) | AUC HT.Co2+ (HT-1080) | AUC HT.CspA (HT-1080) | AUC HT.DPQ (HT-1080) | AUC HT.EGTA (HT-1080) | AUC HT.Gd3+ (HT-1080) | AUC HT.LNAME (HT-1080) | AUC HT.Lmim (HT-1080) | AUC HT.NAD+ (HT-1080) | AUC HT.NMMA (HT-1080) | HT.atoc (AUC) (HT-1080) | HT.bCarotene (AUC) (HT-1080) | HT.deferox (AUC) (HT-1080) | HT.digoxin (AUC) (HT-1080) | HT.trolox (AUC) (HT-1080) | further results
CC1(C)CC(=O)C2=C(C1)OC1=C(C(=O)CC(C)(C)C1)C2c1ccc(O)cc1O [CIL62] | 0.02941 | −0.01143 | −0.007393 | −0.1437 | 0.002455 | 0.08707 | 0.03422 | −0.001347 | 0.01017 | 0.04611 | −0.02573 | −0.003569 | 0.008056 | −0.01689 | −0.01754 | 0.08235 | 0.02726 | 0.1061 | −0.02448 | −0.03123 | effect of necrostatin-1 on lethality (HT-1080; 19 μM Nec-1): suppressed by necrostatin-1; HT.zVAD (AUC) (HT-1080): −0.01794; AUC, modulator BJ.3MA (BJeLR): 0.009762; AUC, modulator BJ.ALLN (BJeLR): −0.06265; AUC, modulator BJ.Boc D (BJeLR): −0.008658; AUC, modulator BJ.CHX (BJeLR): 0.5162; AUC, modulator BJ.Co2+ (BJeLR): 0.01574; AUC, modulator BJ.DPQ (BJeLR): −0.005752; AUC, modulator BJ.Gd3+ (BJeLR): 0.002946; AUC, modulator BJ.LNAME (BJeLR): −0.02055; AUC, modulator BJ.Lmin/NAD+ (BJeLR): 0.08736; AUC, modulator BJ.Lmin (BJeLR): 0.01862; AUC, modulator BJ.NAD+ (BJeLR): 0.04149; AUC, modulator BJ.NMMA (BJeLR): −0.05556; AUC, modulator BJ.Nec-1 (BJeLR): 0.1929; AUC, modulator BJ.Pepstatin (BJeLR): 0.06831; AUC, modulator BJ.TLCK (BJeLR): −0.03175
O=c1c(Cl)c(Cl)cnn1-c1ccc(Cl)cc1 [CIL63] | 0.07925 | −0.003254 | 0.01784 | −0.1088 | 0.01855 | 0.07744 | 0.02639 | 0.003063 | −0.02172 | 0.06222 | −0.03164 | 0.04201 | 0.03962 | 0.03316 | −0.002298 | 0.07269 | 0.0644 | 0.08989 | 0.02371 | 0.03222 | HT.zVAD (AUC) (HT-1080): 0.01846; AUC, modulator BJ.3MA (BJeLR): 0.04075; AUC, modulator BJ.ALLN (BJeLR): 0.0544; AUC, modulator BJ.Boc D (BJeLR): −0.01053; AUC, modulator BJ.CHX (BJeLR): 0.09508; AUC, modulator BJ.Co2+ (BJeLR): 0.02177; AUC, modulator BJ.DPQ (BJeLR): 0.0003046; AUC, modulator BJ.Gd3+ (BJeLR): 0.01459; AUC, modulator BJ.LNAME (BJeLR): −0.006812; AUC, modulator BJ.Lmin/NAD+ (BJeLR): 0.07776; AUC, modulator BJ.Lmin (BJeLR): 0.01215; AUC, modulator BJ.NAD+ (BJeLR): 0.02352; AUC, modulator BJ.NMMA (BJeLR): 0.002719; AUC, modulator BJ.Nec-1 (BJeLR): 0.02815; AUC, modulator BJ.Pepstatin (BJeLR): 0.02882; AUC, modulator BJ.TLCK (BJeLR): −0.0437
[O-][N+]1=c2ccc(Nc3ccccc3)cc2=NC12CCCCC2 [CIL66] | 0.02652 | −0.03277 | −0.02085 | −0.1542 | −0.05788 | 0.08144 | −0.06034 | −0.05469 | −0.01105 | 0.03093 | −0.01757 | 0.004035 | 0.01652 | −0.01106 | −0.01421 | 0.05045 | 0.03186 | 0.1299 | −0.05456 | −0.03334 | HT.zVAD (AUC) (HT-1080): 0.01629; AUC, modulator BJ.3MA (BJeLR): 0.04168; AUC, modulator BJ.ALLN (BJeLR): 0.08747; AUC, modulator BJ.Boc D (BJeLR): −0.03146; AUC, modulator BJ.CHX (BJeLR): 0.08369; AUC, modulator BJ.Co2+ (BJeLR): −0.03141; AUC, modulator BJ.DPQ (BJeLR): −0.007284; AUC, modulator BJ.Gd3+ (BJeLR): −0.003838; AUC, modulator BJ.LNAME (BJeLR): 0.02705; AUC, modulator BJ.Lmin/NAD+ (BJeLR): 0.06444; AUC, modulator BJ.Lmin (BJeLR): −0.05195; AUC, modulator BJ.NAD+ (BJeLR): −0.0264; AUC, modulator BJ.NMMA (BJeLR): −0.02558; AUC, modulator BJ.Nec-1 (BJeLR): 0.03694; AUC, modulator BJ.Pepstatin (BJeLR): 0.04469; AUC, modulator BJ.TLCK (BJeLR): −0.07935
O=S1(=O)Nc2c(ccc3cccnc23)-c2ccccc21 [CIL67] | 0.08909 | 0.06498 | −0.03558 | −0.1041 | −0.02378 | 0.1458 | 0.03257 | 0.01638 | −0.01092 | 0.1234 | −0.01945 | −0.007515 | 0.01912 | −0.01795 | −0.01349 | 0.05006 | 0.04657 | 0.1176 | −0.02175 | −0.05687 | HT.zVAD (AUC) (HT-1080): 0.004996; AUC, modulator BJ.3MA (BJeLR): 0.02312; AUC, modulator BJ.ALLN (BJeLR): 0.02149; AUC, modulator BJ.Boc D (BJeLR): 0.00578; AUC, modulator BJ.CHX (BJeLR): 0.3083; AUC, modulator BJ.Co2+ (BJeLR): 0.03708; AUC, modulator BJ.DPQ (BJeLR): −0.005089; AUC, modulator BJ.Gd3+ (BJeLR): 0.0143; AUC, modulator BJ.LNAME (BJeLR): 0.01177; AUC, modulator BJ.Lmin/NAD+ (BJeLR): 0.1599; AUC, modulator BJ.Lmin (BJeLR): −0.08787; AUC, modulator BJ.NAD+ (BJeLR): −0.07272; AUC, modulator BJ.NMMA (BJeLR): −0.01601; AUC, modulator BJ.Nec-1 (BJeLR): −0.02018; AUC, modulator BJ.Pepstatin (BJeLR): 0.08703; AUC, modulator BJ.TLCK (BJeLR): 0.06141
